According to PubChem BioAssay AID1963843 (Molecular Pharmacology Branch, DTP, NCI, 2024):

System: 616215-338-R-J1-PDC complex spheroid viability
Test: Anticancer human tumor 616215-338-R-J1-PDC patient-derived colon adenocarcinoma cell line growth inhibition [POLQ]
Details: for IC50: curve of first compound; for viability, T/C: stronger effect = lower value
Method: Multicellular complex tumor spheroid response to Polymerase (POL) inhibitors (novobiocin, ART-558, RP6685) in combination with a variety of drugs and investigational agents in selected tumor cell lines
The POL inhibitors (novobiocin, ART-558, and RP6685) were evaluated both individually and in combination with standard of care and investigational anticancer small molecules within a complex spheroid model of solid tumors. . Complex spheroids include a stromal component modeled by human endothelial cells (HUVEC) and fibroblasts modeled by human mesenchymal stem cells (MSCs). The concentration ranges selected for each drug and investigational agent were based upon clinically achievable concentrations if the clinical Cmax of the agent was known.
Compounds. The drugs and investigational agents: novobiocin (NSC847541), ART-558 (NSC835418), RP-6685 (NSC848927), peposertib (NSC802822), ceralasertib (NSC780249), elimusertib (NSC800525), camonsertib (NSC841442), AZD-1390 (NSC803789), olaparib (NSC753686), talazoparib (NSC767125), rucaparib (NSC756644), sotorasib (NSC818433), MRTX-1133 (NSC836407), SN-38 (NSC673596), topotecan (NSC609699), epotoside (NSC141540), doxorubicin (NSC123127), gemcitabine (NSC613327), 5-fluorouracil (NSC19893), paclitaxel (NSC125973), vemurafenib (NSC761431), MSA-2 (NSC828583), SN-011 (NSC837082), adavosertib (NSC754352), prexasertib (NSC758257), carboplatin (NSC241240) and oxaliplatin (NSC266046), were obtained from the National Cancer Institute (NCI) Developmental Therapeutics Program Chemical Repository (21). The FDA-approved anticancer drug set is available from the Developmental Therapeutics Program at https://dtp.cancer.gov/organization/dscb/obtaining/. […] The stock solutions were prepared in dimethyl sulfoxide (DMSO, Sigma-Aldrich, St. Louis, MO, cat. D2650), except for the platinum compounds which were prepared in saline (Quality Biological, Gaithersburg, MD, cat. 114-055-101), at 800-fold the tested concentration and stored at -70 degrees C prior to their use. All drugs and investigational agents were tested over a range starting from a high concentration at or near the clinical Cmax and decreasing in half-log increments. If the clinical Cmax for an agent had not been determined, the highest concentration tested was 10 microM, except for SN-38, which was tested at a high concentration of 1 microM.
Cell Culture. All cells were maintained in an incubator at 37 degrees C and 5% CO2 with 95% humidity. The PDC lines were cultured according to standard operating procedures established by the NCI PDMR (https://pdmr.cancer.gov). Table 3 of the manuscript, lists the cell lines along with the number of the three cell types plated to form the mct-spheroids and media for tumor cell growth. After thawing, all PDC lines, except 997537-175-T-J1-PDC and 415267-285-R-J2-PDC, were cultured in Matrigel-coated flasks prepared with a working solution of 1X Ham's F-12 nutrient mix, without supplementation (Thermo Fisher Scientific, cat. 11765054), 100 U/mL penicillin-streptomycin (Thermo Fisher Scientific, cat. 15140122), and 2.5% Matrigel (Corning Inc., Corning, NY, cat. 354248) for the first three passages. The two PDC lines 997537-175-T-J1-PDC and 415267-285-R-J2-PDC were cultured on uncoated flasks. The 857933-349-R-J2-PDC line was cultured in 6C/Colon 1B media containing advanced DMEM/F-12 (Thermo Fisher Scientific, cat. 12634028), 10 mM HEPES (Thermo Fisher Scientific, cat. 15630080), 1X GlutaMAX supplement (Thermo Fisher Scientific, cat. 35050061), 0.1 mg/mL primocin (InvivoGen, San Diego, CA, cat. ant-pm-2), 10% defined fetal bovine serum, heat inactivated (HyClone Laboratories Inc., Logan, UT, cat. SH30070.03HI), 50% L-WRN conditioned media (ATCC, cat. CRL-3276), 1.25 mM N-Acetyl-L-cysteine (Sigma-Aldrich, cat. A9165), 10 mM nicotinamide (Sigma-Aldrich, cat. N0636), 1X B-27 supplement (Thermo Fisher Scientific, cat. 17504044), 1X N-2 supplement (Thermo Fisher Scientific, cat. […]

[1] = second compound 0.0316 µM, first compound 0.0316 µM
[2] = second compound 0.0316 µM, first compound 0.1 µM
[3] = second compound 0.0316 µM, first compound 0.316 µM
[4] = second compound 0.0316 µM, first compound 1 µM
[5] = second compound 0.0316 µM, first compound 3.16 µM
[6] = second compound 0.0316 µM, first compound 10 µM
[7] = second compound 0.1 µM, first compound 0.0316 µM
[8] = second compound 0.1 µM, first compound 0.1 µM
[9] = second compound 0.1 µM, first compound 0.316 µM
[10] = second compound 0.1 µM, first compound 1 µM
[11] = second compound 0.1 µM, first compound 3.16 µM
[12] = second compound 0.1 µM, first compound 10 µM
[13] = second compound 0.316 µM, first compound 0.0316 µM
[14] = second compound 0.316 µM, first compound 0.1 µM
[15] = second compound 0.316 µM, first compound 0.316 µM
[16] = second compound 0.316 µM, first compound 1 µM
[17] = second compound 0.316 µM, first compound 3.16 µM
[18] = second compound 0.316 µM, first compound 10 µM
[19] = second compound 1 µM, first compound 0.0316 µM
[20] = second compound 1 µM, first compound 0.1 µM
[21] = second compound 1 µM, first compound 0.316 µM
[22] = second compound 1 µM, first compound 1 µM
[23] = second compound 1 µM, first compound 3.16 µM
[24] = second compound 1 µM, first compound 10 µM
[25] = second compound 3.16 µM, first compound 0.0316 µM
[26] = second compound 3.16 µM, first compound 0.1 µM
[27] = second compound 3.16 µM, first compound 0.316 µM
[28] = second compound 3.16 µM, first compound 1 µM
[29] = second compound 3.16 µM, first compound 3.16 µM
[30] = second compound 3.16 µM, first compound 10 µM
[31] = second compound 10 µM, first compound 0.0316 µM
[32] = second compound 10 µM, first compound 0.1 µM
[33] = second compound 10 µM, first compound 0.316 µM
[34] = second compound 10 µM, first compound 1 µM
[35] = second compound 10 µM, first compound 3.16 µM
[36] = second compound 10 µM, first compound 10 µM
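Further: spheroids exposed to compounds for one week before readout.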
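Wherever viability, T/C is given: percent viability relative to DMSO vehicle wells taken as 100%.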

SMILES: CC1COCCN1c1cc(C2(S(C)(=N)=O)CC2)nc(-c2ccnc3[nH]ccc23)n1 (centres undefined) + Cc1cccc(N(C)C(=O)C2C(O)CCN2c2nc(C)cc(C(F)(F)F)c2C#N)c1
- IC50 (second compound 0.0316 µM): > 10 µM
- IC50 (second compound 0.1 µM): > 10 µM
- IC50 (second compound 0.316 µM): > 10 µM
- IC50 (second compound 1 µM): > 10 µM
- IC50 (second compound 3.16 µM): > 10 µM
- IC50 (second compound 10 µM): > 10 µM
- viability, T/C [1]: 88.5%
- viability, T/C [2]: 104%
- viability, T/C [3]: 94.8%
- viability, T/C [4]: 99.7%
- viability, T/C [5]: 101%
- viability, T/C [6]: 69.1%
- viability, T/C [7]: 102%
- viability, T/C [8]: 95.1%
- viability, T/C [9]: 101%
- viability, T/C [10]: 101%
- viability, T/C [11]: 95.6%
- viability, T/C [12]: 68.2%
- viability, T/C [13]: 94.9%
- viability, T/C [14]: 98.9%
- viability, T/C [15]: 96.8%
- viability, T/C [16]: 102%
- viability, T/C [17]: 89.1%
- viability, T/C [18]: 62%
- viability, T/C [19]: 113%
- viability, T/C [20]: 102%
- viability, T/C [21]: 98.2%
- viability, T/C [22]: 101%
- viability, T/C [23]: 97%
- viability, T/C [24]: 69.1%
- viability, T/C [25]: 102%
- viability, T/C [26]: 96%
- viability, T/C [27]: 91.5%
- viability, T/C [28]: 104%
- viability, T/C [29]: 86.4%
- viability, T/C [30]: 74.7%
- viability, T/C [31]: 114%
- viability, T/C [32]: 111%
- viability, T/C [33]: 103%
- viability, T/C [34]: 111%
- viability, T/C [35]: 95.7%
- viability, T/C [36]: 71.7%

SMILES: CC1COCCN1c1cc(C2(S(C)(=N)=O)CC2)nc(-c2ccnc3[nH]ccc23)n1 (centres undefined) + COC1C(OC(N)=O)C(O)C(Oc2ccc3c(O)c(NC(=O)c4ccc(O)c(CC=C(C)C)c4)c(=O)oc3c2C)OC1(C)C
- IC50 (second compound 0.0316 µM): > 10 µM
- IC50 (second compound 0.1 µM): > 10 µM
- IC50 (second compound 0.316 µM): > 10 µM
- IC50 (second compound 1 µM): > 10 µM
- IC50 (second compound 3.16 µM): > 10 µM
- IC50 (second compound 10 µM): > 10 µM
- viability, T/C [1]: 93.8%
- viability, T/C [2]: 104%
- viability, T/C [3]: 100%
- viability, T/C [4]: 98.5%
- viability, T/C [5]: 98.5%
- viability, T/C [6]: 67.1%
- viability, T/C [7]: 98.2%
- viability, T/C [8]: 91.7%
- viability, T/C [9]: 101%
- viability, T/C [10]: 96.6%
- viability, T/C [11]: 92.3%
- viability, T/C [12]: 73.9%
- viability, T/C [13]: 97.7%
- viability, T/C [14]: 103%
- viability, T/C [15]: 105%
- viability, T/C [16]: 95.5%
- viability, T/C [17]: 97.2%
- viability, T/C [18]: 65.1%
- viability, T/C [19]: 99.3%
- viability, T/C [20]: 99.1%
- viability, T/C [21]: 108%
- viability, T/C [22]: 104%
- viability, T/C [23]: 94.2%
- viability, T/C [24]: 63.9%
- viability, T/C [25]: 107%
- viability, T/C [26]: 100%
- viability, T/C [27]: 108%
- viability, T/C [28]: 94%
- viability, T/C [29]: 94.5%
- viability, T/C [30]: 60.6%
- viability, T/C [31]: 96.8%
- viability, T/C [32]: 95.3%
- viability, T/C [33]: 100%
- viability, T/C [34]: 98.6%
- viability, T/C [35]: 98.7%
- viability, T/C [36]: 61.8%
